Results on 27 compounds are retold here after patent US20240351986A1, “UREA COMPOUND CONTAINING 2-HETEROAROMATIC RING SUBSTITUTION, PREPARATION METHOD THEREFOR AND USE THEREOF” (SHANGHAI INSTITUTE OF MATERIA MEDICA, CHINESE ACADEMY OF …, priority 2021, published 2024).

The assay concerns the target T1, Recombinant human CDK9/cyclin T1 (Homo sapiens, UniProt P50750).
T1 construct: purchased Carna bioscience 04-110
As to the kind of experiment: CDK9 enzyme inhibitory activity (ADP-Glo kinase assay). The format is biochemical. Conditions: CDK9 enzyme activity, average of two independent repeats; for inhibition at 0.01 µM: compound 10 nM, read-out: Inhibition rate at different concentrations (%) 10 nM; for inhibition at 0.1 µM: compound 100 nM, read-out: Inhibition rate at different concentrations (%) 100 nM. On the procedure:
Experimental method: Recombinant human CDK9/cyclin T1 (Carna bioscience, Cat #04-110) was diluted with dilution buffer (20 mM Tris HCl (pH 7.5), 0.02% Triton X-100, 0.01% BSA, 2 mM DTT, 0.5 mM Na3VO4, 10% Glycerol) to […], the substrates CDK7/9 tide (ThermoFisher, Cat #PV5090) and ATP (sigmaaldrich, Cat #A1852) were diluted with assay buffer (25 mM Tris HCl (pH7.5), 10 mM MgCl2, 0.5 mM EGTA (pH 8), 0.5 mM Na3VO4, 5 mMb-glycerol phosphate, 0.1% Triton X-100, 2.5 mM DTT) to final concentrations of 100 μM and […] respectively, aliquot and set aside. 2 μl of diluted recombinant human CDK9/cyclin T1, 1 μl of test compound, and 2 μl of diluted substrate CDK7/9 tide containing ATP were added to the 384-well plate. […] The positive control was the well in which enzyme and substrate were co-incubated, and the negative control was the well in which dilution buffer and substrate were co-incubated. The inhibition rate was calculated according to the following formula.
For orientation: In ADP-Glo the light output rises with the ADP produced.

T1 sequence (P50750 whole entry): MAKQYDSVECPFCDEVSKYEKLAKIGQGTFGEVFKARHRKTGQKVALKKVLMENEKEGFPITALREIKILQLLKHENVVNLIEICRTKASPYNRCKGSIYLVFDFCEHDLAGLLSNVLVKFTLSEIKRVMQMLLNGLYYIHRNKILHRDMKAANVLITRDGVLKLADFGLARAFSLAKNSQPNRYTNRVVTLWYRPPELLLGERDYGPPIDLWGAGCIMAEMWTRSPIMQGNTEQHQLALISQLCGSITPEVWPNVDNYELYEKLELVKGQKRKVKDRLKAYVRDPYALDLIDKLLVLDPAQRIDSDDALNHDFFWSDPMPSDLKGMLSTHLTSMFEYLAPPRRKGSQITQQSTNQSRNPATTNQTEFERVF
T1 sequence (O60563 whole entry partner): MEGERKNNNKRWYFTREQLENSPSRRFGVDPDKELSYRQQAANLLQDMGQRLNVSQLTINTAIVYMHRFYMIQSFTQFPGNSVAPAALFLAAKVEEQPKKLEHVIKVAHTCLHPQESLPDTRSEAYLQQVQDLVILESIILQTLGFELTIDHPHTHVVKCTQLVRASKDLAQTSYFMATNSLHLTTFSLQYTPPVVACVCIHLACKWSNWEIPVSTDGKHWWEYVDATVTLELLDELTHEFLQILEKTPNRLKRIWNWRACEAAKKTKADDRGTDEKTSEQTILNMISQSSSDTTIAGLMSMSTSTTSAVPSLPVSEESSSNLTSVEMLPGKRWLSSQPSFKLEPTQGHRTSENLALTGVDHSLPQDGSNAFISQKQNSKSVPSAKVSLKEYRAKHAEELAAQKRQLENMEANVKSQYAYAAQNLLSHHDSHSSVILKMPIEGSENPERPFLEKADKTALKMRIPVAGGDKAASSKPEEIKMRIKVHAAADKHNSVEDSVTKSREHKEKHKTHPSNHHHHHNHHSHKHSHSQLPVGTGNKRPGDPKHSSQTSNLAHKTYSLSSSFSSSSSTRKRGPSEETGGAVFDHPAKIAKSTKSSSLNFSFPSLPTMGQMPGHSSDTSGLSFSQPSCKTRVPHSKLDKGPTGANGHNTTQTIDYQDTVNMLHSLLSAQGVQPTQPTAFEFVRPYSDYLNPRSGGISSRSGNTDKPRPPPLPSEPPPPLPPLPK

With `CC(=O)N[C@H]1CC[C@H](NC(=O)Nc2cc(-c3cnn4c3CC(C)(C)C4)c(Cl)cn2)C1` (stereo in doubt) [Example 74, N-((1S,3S)-3-(3-(5-chloro-4-(5,5-dimethyl-5,6-dihydro-4H-pyrrolo[1,2-b]pyrazol-3-yl)pyridin-2-yl)ureido)cyclopentyl)acetamide], the inhibition at 0.01 µM amounted to 63% and the inhibition at 0.1 µM was determined as 92%.
Regarding `COc1cc(F)ccc1-c1ccnc(NC(=O)NC2CCC(NC(=O)OC(C)(C)C)CC2)c1` (stereo not drawn) [Example 1, tert-butyl((1r,4r)-4-(3-(4-(4-fluoro-2-methoxyphenyl)pyridin-2-yl)ureido)cyclohexyl) carbamate], the inhibition at 0.01 µM is 48.5% and the inhibition at 0.1 µM was 97.3%.
The matching figures for `COc1cc(F)ccc1-c1ccnc(NC(=O)NC2CCC(NC(C)=O)CC2)c1` (stereo not drawn) [Example 4, N-((1r,4r)-4-(3-(4-(4-fluoro-2-methoxyphenyl)pyridin-2-yl)ureido)cyclohexyl)acetamide]: 45.1% and 93.2%.
With `COc1cc(F)c(F)cc1-c1ccnc(NC(=O)NC2CCC(N)CC2)c1` (stereo not drawn) [Example 5, 1-((1r,4r)-4-aminocyclohexyl)-3-(4-(4,5-difluoro-2-methoxyphenyl)pyridin-2-yl)urea], the inhibition at 0.01 µM was 46.2% and the inhibition at 0.1 µM turned out to be 88.2%.
For the compound `COc1cc(-c2ccnc(NC(=O)NC3CCC(N)CC3)c2)ccc1F` (stereo not drawn) [Example 6, 1-((1r,4r)-4-aminocyclohexyl)-3-(4-(4-fluoro-3-methoxyphenyl)pyridin-2-yl)urea], the inhibition at 0.01 µM was 32% and the inhibition at 0.1 µM turned out to be 74.1%.
The corresponding values for `COc1cc(-c2ccnc(NC(=O)NC3CCC(N)CC3)c2)c(F)cc1F` (stereo not drawn) [Example 7, 1-((1r,4r)-4-aminocyclohexyl)-3-(4-(2,4-difluoro-5-methoxyphenyl)pyridine-2-yl)urea] are 34.3% and 81.1%.
`NC1CCC(NC(=O)Nc2cc(-c3ccc(F)c4ccoc34)ccn2)CC1` (stereo not drawn) [Example 8, 1-((1r, 4r)-4-aminocyclohexyl)-3-(4-(4-fluoro-benzofuran-7-yl)pyridin-2-yl) urea]: the inhibition at 0.01 µM worked out at 23.1% and the inhibition at 0.1 µM was determined as 61.3%.
For the compound `CC(C)c1c2cc(-c3ccnc(NC(=O)NC4CCC(N)CC4)c3)ccc2nn1C` (stereo not drawn) [Example 9, 1-((1r,4r)-4-aminocyclohexyl)-3-(4-(3-isopropyl-2-methyl-2H-indazol-5-yl)pyridin-2-yl)urea], the inhibition at 0.01 µM came out at 23% and the inhibition at 0.1 µM was found to be 55.1%.
Regarding `NC1CCC(NC(=O)Nc2cc(-c3ccc(F)cc3Cl)ccn2)CC1` (stereo not drawn) [Example 10, 1-((1r,4r)-4-aminocyclohexyl)-3-(4-(2-chloro-4-fluorophenyl)pyridin-2-yl) urea], the inhibition at 0.01 µM is -12.6% and the inhibition at 0.1 µM worked out at 94.6%.
For `COCCNC1CCC(NC(=O)Nc2cc(-c3ccc(F)cc3Cl)ccn2)CC1` (stereo not drawn) [Example 11, 1-(4-(2-chloro-4-fluorophenyl)pyridin-2-yl)-3-((1r,4r)-4-((2-methoxyethyl)amino)cyclohexyl)urea], the inhibition at 0.01 µM turned out to be 24.7% and the inhibition at 0.1 µM was 93.4%.
For the compound `NC1CCC(NC(=O)Nc2cc(-c3ccc(F)cc3OC(F)(F)F)ccn2)CC1` (stereo not drawn) [Example 12, 1-((1r,4r)-4-aminocyclohexyl)-3-(4-(4-fluoro-2-trifluoromethoxyphenyl)pyridin-2-yl) urea], the inhibition at 0.01 µM was determined as 19.2% and the inhibition at 0.1 µM amounted to 69.1%.
The matching figures for `Cn1cc(-c2ccnc(NC(=O)NC3CCC(N)CC3)c2)cn1` (stereo not drawn) [Example 13, 1-((1r,4r)-4-aminocyclohexyl)-3-(4-(1-methyl-1H-pyrazol-4-yl)pyridin-2-yl) urea]: -17.5% and 72.3%.
On to `COCCNC1CCC(NC(=O)Nc2cc(-c3cnn(C)c3)ccn2)CC1` (stereo not drawn) [Example 14, 1-((1r,4r)-4-((2-methoxyethyl)amino)cyclohexyl)-3-(4-(1-methyl-1H-pyrazol-4-yl)pyridine-2-yl) urea], for which the inhibition at 0.01 µM is -7.6% and the inhibition at 0.1 µM was 72.3%.
The matching figures for `CC1(C)Cc2c(-c3ccnc(NC(=O)NC4CCC(N)CC4)c3)cnn2C1` (stereo not drawn) [Example 15, 1-((1r,4r)-4-aminocyclohexyl)-3-(4-(5,5-dimethyl-5,6-dihydro-4H-pyrrole [1,2-b]pyrazole-3-yl)pyridin-2-yl) urea]: 51.1% and 91.5%.
On to `CC(=O)NC1CCC(NC(=O)Nc2cc(-c3cnn4c3CC(C)(C)C4)ccn2)CC1` (stereo not drawn) [Example 16, 1-((1r,4r)-4-(3-(4-(5,5-dimethyl-5,6-dihydro-4H-pyrrolo[1,2-b]pyrazol-3-yl)pyridin-2-yl)ureido)cyclohexyl)acetamide], for which the inhibition at 0.01 µM was found to be 72% and the inhibition at 0.1 µM came to 95.7%.
On to `COCCNC1CCC(NC(=O)Nc2cc(-c3cnn4c3CC(C)(C)C4)ccn2)CC1` (stereo not drawn) [Example 17, 1-(4-(5,5-dimethyl-5,6-dihydro-4H-pyrrolo[1,2-b]pyrazol-3-yl)pyridin-2-yl)-3-((1r,4r)-4-((2-methoxyethyl)amino)cyclohexyl)urea], for which the inhibition at 0.01 µM is 68.2% and the inhibition at 0.1 µM turned out to be 90.2%.
In the case of `COc1cc(F)ccc1-c1cc(NC(=O)NC2CCC(N)CC2)ncc1Cl` (stereo not drawn) [Example 18, 1-((1r,4r)-4-aminocyclohexyl)-3-(5-chloro-4-(4-fluoro-2-methoxyphenyl)pyridin-2-yl)urea], the inhibition at 0.01 µM came to 84% and the inhibition at 0.1 µM is 86%.
With `COCCNC1CCC(NC(=O)Nc2cc(-c3ccc(F)cc3OC)c(Cl)cn2)CC1` (stereo not drawn) [Example 19, 1-(5-chloro-4-(4-fluoro-2-methoxyphenyl)pyridin-2-yl)-3-((1r,4r)-4-((2-methoxyethyl)amino)cyclohexyl)urea], the inhibition at 0.01 µM is 57.1% and the inhibition at 0.1 µM was 87.4%.
The matching figures for `COc1cc(F)ccc1-c1cc(NC(=O)NC2CCC(NCCO)CC2)ncc1Cl` (stereo not drawn) [Example 20, 1-(5-chloro-4-(4-fluoro-2-methoxyphenyl)pyridin-2-yl)-3-((1r,4r)-4-((2-hydroxyethyl)amino)cyclohexyl)urea]: 38.9% and 88.3%.
The corresponding values for `COCC(C)NC1CCC(NC(=O)Nc2cc(-c3ccc(F)cc3OC)c(Cl)cn2)CC1` (stereo not drawn) [Example 21, 1-(5-chloro-4-(4-fluoro-2-methoxyphenyl)pyridin-2-yl)-3-((1r,4r)-4-((1-methoxypropan-2-yl)amino)cyclohexyl)urea] are 45.2% and 91%.
Regarding `COc1cc(F)ccc1-c1cc(NC(=O)NC2CCC(NC(C)=O)CC2)ncc1Cl` (stereo not drawn) [Example 22, N-((1r,4r)-4-(3-(5-chloro-4-(4-fluoro-2-methoxyphenyl)pyridin-2-yl)ureido)cyclohexyl)acetamide], the inhibition at 0.01 µM worked out at 62.9% and the inhibition at 0.1 µM was found to be 93.5%.
Take `COc1cc(F)ccc1-c1cc(NC(=O)NC2CCC(NC(C)C)CC2)ncc1Cl` (stereo not drawn) [Example 23, 1-(5-chloro-4-(4-fluoro-2-methoxyphenyl)pyridin-2-yl)-3-((1r,4r)-4-(isopropylamino)cyclohexyl)urea]: the inhibition at 0.01 µM came out at 37.2% and the inhibition at 0.1 µM was found to be 87.4%.
For `COc1cc(F)ccc1-c1cc(NC(=O)NC2CCC(NC3CC3)CC2)ncc1Cl` (stereo not drawn) [Example 24, 1-(5-chloro-4-(4-fluoro-2-methoxyphenyl)pyridin-2-yl)-3-((1r,4r)-4-(cyclopropylamino)cyclohexyl)urea], the inhibition at 0.01 µM was found to be 37.8% and the inhibition at 0.1 µM worked out at 73.1%.
Take `COc1cc(F)ccc1-c1cc(NC(=O)NC2CCC(NC3CCOC3)CC2)ncc1Cl` (stereo not drawn) [Example 25, 1-(5-chloro-4-(4-fluoro-2-methoxyphenyl)pyridin-2-yl)-3-((1r,4r)-4-((tetrahydrofuran-3-yl)amino)cyclohexyl)urea]: the inhibition at 0.01 µM was 28.7% and the inhibition at 0.1 µM came out at 61.2%.
The corresponding values for `COc1cc(F)ccc1-c1cc(NC(=O)NC2CCC(NCCC(F)(F)F)CC2)ncc1Cl` (stereo not drawn) [Example 26, 1-(5-chloro-4-(4-fluoro-2-methoxyphenyl)pyridin-2-yl)-3-((1r,4r)-4-((3,3,3-trifluoropropyl)amino)cyclohexyl)urea] are 39.3% and 82.5%.
As for `COc1cc(F)ccc1-c1cc(NC(=O)NC2CCC(NCCN(C)C)CC2)ncc1Cl` (stereo not drawn) [Example 27, 1-(5-chloro-4-(4-fluoro-2-methoxyphenyl)pyridin-2-yl)-3-((1r,4r)-4-((2-(dimethylamino)ethyl)amino)cyclohexyl)urea], the inhibition at 0.01 µM was 44.2% and the inhibition at 0.1 µM was found to be 78.4%.
In the case of `COc1cc(F)ccc1-c1cc(NC(=O)NC2CCC(NC(=O)CN(C)C)CC2)ncc1Cl` (stereo not drawn) [Example 28, N-((1r,4r)-4-(3-(5-chloro-4-(4-fluoro-2-methoxyphenyl)pyridin-2-yl)ureido)cyclohexyl)-2-(dimethylamino)acetamide], the inhibition at 0.01 µM was 29.5% and the inhibition at 0.1 µM is 84.3%.
